{"source": "ChEMBL document CHEMBL1130487", "about": "“Development of a positron emission tomography radiopharmaceutical for imaging thymidine kinase gene expression: Synthesis and in vitro evaluation of 9-{3-[18F] Fluoro-1-hydroxy-2-propoxymethyl guanine” (1997)", "key": {"Rattus norvegicus [1]": {"species_on_record": "Rattus norvegicus", "assay": "Anti proliferation activity determined; Weak effect", "type": "functional"}, "Rattus norvegicus [2]": {"species_on_record": "Rattus norvegicus", "assay": "Inhibition of cell growth by compound at a concentration of 10 uM in 9Ltk+ cells; […]", "type": "functional, cell-based"}, "Rattus norvegicus [3]": {"species_on_record": "Rattus norvegicus", "assay": "Inhibition of cell growth by compound at a concentration of 100 uM in 9Ltk+ cells; Completely stopped the process", "type": "functional, cell-based"}, "[4]": {"assay": "Inhibition of cell growth by compound at a concentration of 10 uM in 9Ltk+ cells", "type": "functional", "conditions": "Rattus norvegicus"}}}
{"smiles": "Nc1nc2c(ncn2COC(CO)CO)c(=O)[nH]1", "values": [{"measurement": "Activity", "setting": "Rattus norvegicus [1]", "result": "Weak effect"}, {"measurement": "inhibition", "setting": "Rattus norvegicus [2]", "result": "Completely stopped the process"}]}
{"smiles": "Nc1nc2c(ncn2COCCO)c(=O)[nH]1", "values": [{"measurement": "inhibition", "setting": "Rattus norvegicus [3]", "result": "Completely stopped the process"}]}
{"smiles": "Nc1nc(O)c2ncn(COC(CO)CF)c2n1", "note": "(centres undefined)", "values": [{"measurement": "inhibition at 10 µM", "setting": "[4]", "result": 50, "unit": "%"}]}
